Assay results taken from ChEMBL document CHEMBL1201862, “PubChem BioAssay data set” (2004).
The source made the active and inactive calls.

What was measured:
[1] = target: T1, Carboxy-terminal domain RNA polymerase II polypeptide A small phosphatase 1 (Homo sapiens, UniProt Q9GZU7); test: CTDSP1 inhibitors, concentration-response, biochemical, absorbance readout, ultra-high-throughput screen actives (AID 540297); format: functional
T1 sequence (Q9GZU7 whole entry): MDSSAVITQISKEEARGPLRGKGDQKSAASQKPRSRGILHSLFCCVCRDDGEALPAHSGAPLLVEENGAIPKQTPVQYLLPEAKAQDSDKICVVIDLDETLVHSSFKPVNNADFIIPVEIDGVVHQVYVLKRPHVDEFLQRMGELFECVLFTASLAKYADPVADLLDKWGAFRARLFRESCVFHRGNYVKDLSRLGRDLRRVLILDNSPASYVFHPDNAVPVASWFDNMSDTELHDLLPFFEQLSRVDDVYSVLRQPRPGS

[2] = HEK-293T cell viability reduction – luminescence, B-cell screen hits, cytotoxicity control for BCR NF-kB inhibitor project, dose response (AID 489021); format: functional, cell-based;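 note: HEK-293T cells carrying an NF-kB luciferase reporter; cells exposed to compound for about 14 hours before viability readout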
[3] = target: T2, Calpain-2 catalytic subunit (Sus scrofa, UniProt P43367); test: m-calpain protease blockers, concentration series – biochemical, fluorogenic peptide substrate, dose response (AID 1420); format: functional
T2 sequence (P43367 whole entry): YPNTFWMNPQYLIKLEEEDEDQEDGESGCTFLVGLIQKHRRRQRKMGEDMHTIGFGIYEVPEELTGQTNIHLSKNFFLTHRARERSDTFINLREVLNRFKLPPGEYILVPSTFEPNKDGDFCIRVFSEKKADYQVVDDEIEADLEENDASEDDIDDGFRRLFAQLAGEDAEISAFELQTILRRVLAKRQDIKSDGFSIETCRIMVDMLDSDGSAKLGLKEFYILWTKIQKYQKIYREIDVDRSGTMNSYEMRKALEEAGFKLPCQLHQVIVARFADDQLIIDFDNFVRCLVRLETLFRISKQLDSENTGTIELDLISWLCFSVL

P388/ADR = test: cells; format: functional; details: Mus musculus
P388 = test: cells; format: functional; details: Mus musculus
SN12K1 = test: cells; format: functional; details: Homo sapiens
[4] = target: T3, Ubiquitin-conjugating enzyme E2 N (Homo sapiens, UniProt P61088); format: functional;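 note: Dose-response confirmation in a TR-FRET assay detecting UBC13-driven polyubiquitin chain formation, inhibition measured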
T3 sequence (P61088 whole entry): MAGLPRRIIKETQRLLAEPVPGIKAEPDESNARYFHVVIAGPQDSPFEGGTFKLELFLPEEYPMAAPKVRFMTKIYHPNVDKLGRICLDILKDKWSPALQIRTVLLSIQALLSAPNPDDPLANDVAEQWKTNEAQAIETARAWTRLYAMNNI

[5] = non-specific 3'UTR reporter inhibition in Clone20-Shn3RL – cell-based, Renilla luciferase, cherry-picked, counter-screen for Shn3 inhibitor project, dose response (AID 624133); format: functional
[6] = loss of viability in HepG2 cells – cell-based, CellTiter-Glo, cherry-picked, cytotoxicity control for Shn3 inhibitor project, dose response (AID 624134); format: functional
[7] = reduction of Shn3 3'UTR-driven luciferase in osteoblasts – cell-based, Clone20 osteoblasts, firefly luciferase, cherry-picked, dose response (AID 624132); format: functional;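 note: firefly luciferase luminescence from reporter carrying the Shn3 3'UTR in osteoblasts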
[8] = target: Glucose-6-phosphate 1-dehydrogenase (Homo sapiens, UniProt P11413); test: inhibition of Homo sapiens G6PD, dose series – biochemical, fluorescence, selectivity assay for P. falciparum G6PD inhibitor project, dose response (AID 504792); format: functional
Sequence of Glucose-6-phosphate 1-dehydrogenase (P11413 whole entry): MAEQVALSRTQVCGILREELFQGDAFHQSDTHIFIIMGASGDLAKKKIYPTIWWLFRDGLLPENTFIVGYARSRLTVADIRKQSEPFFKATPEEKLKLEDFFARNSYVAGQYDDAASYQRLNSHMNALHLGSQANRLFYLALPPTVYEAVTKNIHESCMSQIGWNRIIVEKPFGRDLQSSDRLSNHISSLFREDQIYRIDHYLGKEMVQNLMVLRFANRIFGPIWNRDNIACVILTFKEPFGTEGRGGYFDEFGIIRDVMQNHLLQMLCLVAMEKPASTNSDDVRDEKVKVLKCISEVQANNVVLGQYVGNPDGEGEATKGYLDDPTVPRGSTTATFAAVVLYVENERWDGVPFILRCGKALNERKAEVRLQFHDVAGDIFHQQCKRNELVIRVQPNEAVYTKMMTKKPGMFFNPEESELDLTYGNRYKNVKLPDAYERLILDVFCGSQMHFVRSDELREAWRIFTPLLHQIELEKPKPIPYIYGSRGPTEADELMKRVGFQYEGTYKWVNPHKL

Genome polyprotein = Genome polyprotein (dengue virus type 2, UniProt P29990); test: flavivirus cap methylation enzyme inhibition – biochemical, confirmation dose response, primary screen (AID 588689); format: functional
Sequence of Genome polyprotein (P29990 2492-3391 limits assumed): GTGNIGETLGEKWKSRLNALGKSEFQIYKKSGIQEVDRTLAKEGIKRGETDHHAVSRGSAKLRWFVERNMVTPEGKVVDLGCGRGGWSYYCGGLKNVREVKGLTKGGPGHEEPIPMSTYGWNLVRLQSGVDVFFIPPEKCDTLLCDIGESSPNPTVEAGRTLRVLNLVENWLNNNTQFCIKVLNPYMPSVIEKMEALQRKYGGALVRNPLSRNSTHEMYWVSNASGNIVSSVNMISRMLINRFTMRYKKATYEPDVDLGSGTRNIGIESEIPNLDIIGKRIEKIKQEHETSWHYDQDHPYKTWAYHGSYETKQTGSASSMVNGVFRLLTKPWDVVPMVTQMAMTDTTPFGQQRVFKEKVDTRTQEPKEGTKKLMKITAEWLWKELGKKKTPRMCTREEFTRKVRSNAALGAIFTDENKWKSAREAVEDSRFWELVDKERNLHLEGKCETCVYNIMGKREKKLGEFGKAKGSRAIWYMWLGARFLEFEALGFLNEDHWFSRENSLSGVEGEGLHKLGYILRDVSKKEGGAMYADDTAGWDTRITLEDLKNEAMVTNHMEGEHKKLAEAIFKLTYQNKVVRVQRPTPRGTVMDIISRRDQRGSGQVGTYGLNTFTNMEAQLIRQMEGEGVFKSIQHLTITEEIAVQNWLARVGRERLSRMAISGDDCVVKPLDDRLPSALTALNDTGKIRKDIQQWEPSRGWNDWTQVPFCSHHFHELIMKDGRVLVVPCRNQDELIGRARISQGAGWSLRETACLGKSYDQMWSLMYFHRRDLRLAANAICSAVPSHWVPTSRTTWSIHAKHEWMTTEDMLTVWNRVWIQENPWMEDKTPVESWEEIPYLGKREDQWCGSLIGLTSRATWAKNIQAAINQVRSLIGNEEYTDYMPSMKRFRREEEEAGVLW

H4 = test: Luminescence Cell-Based Dose Response HTS to Identify Activators of 5'UTR Stem-Loop Driven Prion Protein mRNA Translation in H4 Neuroglioblastoma Cells. [Related pubchem assays: 1829 (Project Summary), 1814 (Primary HTS)]; format: functional; details: Homo sapiens
[9] = Luminescence Cell-Based Dose Confirmation HTS to Identify Activators of 5'UTR Stem-Loop Driven Alpha-Synuclein mRNA Translation in H4 Neuroglioblastoma Cells. [Related pubchem assays: 1829 (Project Summary), 1814 (Primary HTS)]; format: functional
[10] = Luminescence Cell-Based Dose Response HTS to Identify Activators of Luciferase Translation or Activity in H4 […] Cells. [Related pubchem assays: 1829 (Project Summary), 1814 (Primary HTS)]; format: functional
[11] = HIV-1 AD8 envelope cell-cell fusion blockers – cherry-pick, dose response (AID 652062); format: functional, cell-based;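 note: luciferase signal from cell-cell fusion driven by HIV-1 clade B AD8 Env; potency is for inhibitors of fusion seen as a drop in luminescence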
[12] = blockers of HIV-1 envelope-mediated cell-cell fusion – cherry-pick, dose response (AID 652057); format: functional, cell-based
[13] = target: T4, Heat shock factor protein 1 (Mus musculus, UniProt P38532); test: enhancement of HSF1-driven luciferase signal – cell-based, NIH3T3, luminescence, dose retest, confirmation (AID 435004); format: functional;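 note: stress induced by proteasome inhibitor MG132 added 30 min after compound; luciferase reporter driven by HSF1 response element in NIH3T3 cells; actives raise luminescence as potentiators of the MG132 stress response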
T4 sequence (P38532 whole entry): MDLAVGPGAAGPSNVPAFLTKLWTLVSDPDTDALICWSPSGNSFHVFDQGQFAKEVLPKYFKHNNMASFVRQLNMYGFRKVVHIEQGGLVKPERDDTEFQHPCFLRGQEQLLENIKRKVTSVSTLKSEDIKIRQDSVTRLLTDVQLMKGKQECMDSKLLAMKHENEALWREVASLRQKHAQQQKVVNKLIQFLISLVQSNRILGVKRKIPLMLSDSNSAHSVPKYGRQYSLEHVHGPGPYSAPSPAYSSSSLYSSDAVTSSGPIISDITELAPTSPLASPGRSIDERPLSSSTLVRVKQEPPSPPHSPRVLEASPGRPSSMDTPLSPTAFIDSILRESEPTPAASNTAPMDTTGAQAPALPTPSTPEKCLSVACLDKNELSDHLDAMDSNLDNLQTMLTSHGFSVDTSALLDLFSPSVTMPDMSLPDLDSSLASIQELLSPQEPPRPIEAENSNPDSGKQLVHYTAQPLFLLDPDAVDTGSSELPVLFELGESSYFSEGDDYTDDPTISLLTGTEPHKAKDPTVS

[14] = blockers of CRF-binding protein–CRF-R2 complex – cell-based, uHTS hits, 384-well, dose response (AID 651639); format: functional, Homo sapiens; details: read-out: IC50_Mean
Large T antigen = Large T antigen (Simian virus 40, UniProt P03070); format: functional, Betapolyomavirus macacae;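 note: Confirmatory-stage PubChem screen for compounds that inhibit SV40 T antigen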
Sequence of Large T antigen (P03070 whole entry): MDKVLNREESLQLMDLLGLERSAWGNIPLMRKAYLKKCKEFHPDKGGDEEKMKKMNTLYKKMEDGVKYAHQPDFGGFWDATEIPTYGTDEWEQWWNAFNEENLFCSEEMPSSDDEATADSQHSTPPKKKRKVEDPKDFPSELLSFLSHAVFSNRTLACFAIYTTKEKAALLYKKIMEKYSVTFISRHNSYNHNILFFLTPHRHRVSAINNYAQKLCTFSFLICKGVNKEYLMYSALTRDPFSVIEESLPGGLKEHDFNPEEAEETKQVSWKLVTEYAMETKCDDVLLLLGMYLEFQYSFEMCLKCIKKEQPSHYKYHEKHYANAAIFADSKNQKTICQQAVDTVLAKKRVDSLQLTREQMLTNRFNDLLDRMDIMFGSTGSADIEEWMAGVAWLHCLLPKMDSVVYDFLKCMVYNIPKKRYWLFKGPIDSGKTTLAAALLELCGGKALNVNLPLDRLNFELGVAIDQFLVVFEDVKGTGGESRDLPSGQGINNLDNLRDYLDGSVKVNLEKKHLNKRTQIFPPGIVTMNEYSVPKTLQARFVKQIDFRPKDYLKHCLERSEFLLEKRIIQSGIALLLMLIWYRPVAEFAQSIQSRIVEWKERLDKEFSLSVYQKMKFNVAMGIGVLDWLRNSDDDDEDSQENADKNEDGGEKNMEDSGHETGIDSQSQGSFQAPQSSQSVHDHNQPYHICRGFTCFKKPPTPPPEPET

[15] = viability of HCT116 lacking mutant beta-catenin – cell-based, human colon tumor, dose response (AID 1045); format: functional;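 note: HCT116 colon tumor cells with beta catenin knocked out; cells exposed to compound for 60 hours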
[16] = viability of PTEN-deleted HCT116 cells – cell-based, HCT116 PTEN knockout, dose response (AID 1047); format: functional;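 note: HCT116 colon tumor cells with PTEN knocked out; cells exposed to compound for 60 hours before readout; potency for loss of cell viability measured by luminescence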
cells = format: functional
INS1 = test: INS-1E survival protection against cytokine death – cell-based, luminescence, retest, dose response (AID 449756); format: functional; details: Rattus norvegicus, INS1;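 note: cell death triggered by IL-1 beta plus TNF-alpha plus IFN-gamma mixture; protective hits raise ATP signal compared with cytokine alone wells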

## CN(c1ccccc1)S(=O)(=O)c1ccc(Cl)c(C(=O)OCC(=O)NCc2ccco2)c1
[1]
  IC50: 8.74 µM (active)

## CN1C(=O)c2cccc3c(S(=O)(=O)Nc4ccccc4F)ccc1c23
[2]
  IC50: > 80 µM (inactive)

## O=P(Nc1cccc(Cl)c1)(Oc1ccccc1)Oc1ccccc1
[3]
  IC50: 8.58 µM (not active)

## Nc1ccc2c(c1)C1=NNC(=O)CC1C2 (centres undefined)
P388/ADR
  GI50: > 100 µM (inactive)
P388
  GI50: > 100 µM (inactive)
SN12K1
  GI50: > 100 µM (inactive)

## Cc1c(Br)c([N+](=O)[O-])nn1CCCC(=O)Nc1c(C)n(C)n(-c2ccccc2)c1=O
[4]
  IC50: > 20 µM (inactive)

## CCCCn1c(CN2CCN(c3ccc(F)cc3)CC2)nc2c1c(=O)n(C)c(=O)n2C
[5]
  AC50: 23 µM (active)
[6]
  AC50: 5.36 µM (active)
[7]
  AC50: 2.73 µM (active)

## Cc1ccc(-c2c(C(=O)N/N=C/c3ccsc3)nnn2-c2nonc2N)cc1
[8]
  IC50: > 80 µM (inactive)

## O=C(NCc1ccco1)C1CCN(C(=O)c2cc3sccc3n2Cc2ccc(Cl)cc2)CC1
[3]
  IC50: 10.9 µM (not active)

## C[C@H](NC(N)=O)C(=O)Nc1ccc(N2CCOCC2)c(S(=O)(=O)Nc2ccc(Cl)cc2)c1
[8]
  IC50: > 80 µM (inactive)

## CCc1c(CNc2ccc(C(=O)NC(CC(=O)O)C(=O)O)cc2)ccc2nc(N)nc(N)c12 (centres undefined)
P388/ADR
  GI50: 0.0179 µM (active)
P388
  GI50: < 0.0144 µM (active)
SN12K1
  GI50: < 0.0202 µM (active)

## CC1CC(=O)C(C(C2=C(O)CC(C)CC2=O)c2ccccc2)=C(O)C1 (centres undefined)
Genome polyprotein
  IC50: 66.2 µM (active)

## CCCn1c(O)nnc1SCc1nc2ccccc2s1
H4
  EC50: 37.1 µM (active)
[9]
  EC50: 3.71 µM (active)
[10]
  EC50: 22.7 µM (active)
[3]
  IC50: 0.803 µM (not active)

## Cc1cc(NC(=O)CSc2nc3ccsc3c(=O)n2CCCC(=O)NCCc2ccccc2)no1
[3]
  IC50: 14.1 µM (not active)

## C[C@H](C(=O)N(C)C[C@@H]1OCc2ccccc2-c2ccccc2C(=O)N([C@@H](C)CO)C[C@H]1C)c1ccccc1
[11]
  AC50: 8.04 µM (active)
[12]
  AC50: 1.23 µM (active)

## C=C1CC(OC)(C(OC)C(=O)N[C@H]2OCO[C@H]3C2O[C@H](C[C@@H](COC)OC)C(C)(C)C3OC)O[C@H](C)[C@@H]1C (some centres undefined)
P388/ADR
  GI50: 0.57 µM (active)
P388
  GI50: 0.147 µM (active)
SN12K1
  GI50: 1.06 µM (active)

## CCOC(=O)c1sc(NC(=O)CSc2nnc(Cc3ccccc3)o2)c(C#N)c1C
[8]
  IC50: > 80 µM (inactive)

## CCOC(=O)C1CCCN(C(=O)CSc2ccc(NC(C)=O)cc2)C1 (centres undefined)
[3]
  IC50: < 0.4 µM (not active)

## O=C(CBr)c1ccc([N+](=O)[O-])c(CS(=O)(=O)c2ccc(Cl)cc2)c1
[13]
  EC50: 31.9 µM (active)
[8]
  IC50: > 80 µM (inactive)

## NC(Cc1ccc([N+](=O)[O-])cc1)=NOC(=O)c1ccc(Br)cc1
[14]
  IC50: 9.44 µM (active)

## CNC(=O)c1cccc2c(Nc3ccc(NS(C)(=O)=O)cc3OC)c3cccc(C)c3nc12
P388/ADR
  GI50: 0.0488 µM (active)
P388
  GI50: < 0.01 µM (active)
SN12K1
  GI50: < 0.01 µM (active)

## O=C(COC(=O)c1c[nH]c(=O)[nH]c1=O)Nc1cccc([N+](=O)[O-])c1
[4]
  IC50: > 20 µM (inactive)

## CCOC(=O)c1c(NC(=O)c2ccc(C)cc2)sc2c1CC(C)(C)NC2(C)C
[4]
  IC50: > 20 µM (inactive)

## O=C1NC(=O)C(=Cc2ccc(-c3ccccc3[N+](=O)[O-])o2)C(=O)N1
Large T antigen
  IC50: 62.2 µM (active)
Genome polyprotein
  IC50: 17.8 µM (active)
[8]
  IC50: > 80 µM (inactive)

## CC(=O)O[C@H]1CC[C@@]2(C)[C@H](CC[C@@H]3[C@@H]2CC[C@]2(C)[C@@H](c4ccc(=O)oc4)C[C@H]4O[C@]342)C1
P388/ADR
  GI50: 40.9 µM (inactive)
P388
  GI50: 11 µM (inactive)
SN12K1
  GI50: 0.426 µM (active)

## CCN(CC)C(=O)c1ccc(S(=O)(=O)Cc2ccc(C)cc2)c([N+](=O)[O-])c1
[2]
  IC50: > 80 µM (inactive)

## Clc1ccc2c(c1)CNc1c(ncnc1N1CCOCC1)O2
[4]
  IC50: > 20 µM (inactive)

## CCc1ccc(OCC(=O)NC(N=C(S)Nc2ccc(Cl)cc2)C(Cl)(Cl)Cl)cc1 (centres undefined)
[5]
  AC50: 26.1 µM (active)
[6]
  AC50: 18.1 µM (active)
[7]
  AC50: 4.96 µM (active)
[15]
  EC50: 13.6 µM (active)
[16]
  EC50: 13.8 µM (active)

## COc1ccccc1NC(=O)N[C@@H]1C=C[C@H](CC(=O)NCc2ccc(Cl)c(Cl)c2)O[C@@H]1CO
[11]
  AC50: 43 µM (active)
[12]
  AC50: 14.6 µM (active)

## CC(C)[C@H](N)c1nnc(SCC(=O)c2ccc(Cl)cc2)o1
[2]
  IC50: > 80 µM (inactive)

## Nc1nc(N)c2cc(Sc3cccc(C(F)(F)F)c3)ccc2n1 [WR-159412]
[5]
  AC50: 19.7 µM (active)
[6]
  AC50: 2.34 µM (active)
[7]
  AC50: 4.87 µM (active)

## O=C(O/N=C/c1ccc2c(c1)OCO2)c1ccc([N+](=O)[O-])cc1
cells
  IC50: 8.31 µM (active)
[3]
  IC50: 16 µM (not active)

## CC(Cl)=CCn1c(NCCc2ccccc2)nc2c1c(=O)n(C)c(=O)n2C
[5]
  AC50: 0.974 µM (active)
[11]
  AC50: 3.67 µM (active)
[6]
  AC50: 58.8 µM (active)
[12]
  AC50: 33.4 µM (active)

## CC1CN(Cc2csc(-c3ccc(Cl)cc3)n2)CC(C)O1 (centres undefined)
[3]
  IC50: 13.2 µM (not active)

## CCOc1ccc(NC(=O)c2ccc(NC(=O)c3ccc(NC(N)=O)cc3)cc2)cc1
[1]
  IC50: 3.89 µM (active)

## COc1ccc(-c2ccc(OC)c([C@H]3[C@H]4C=CC[C@@H](C)[C@@H]4C(=O)N3Cc3ccccc3)c2)cc1C
[2]
  IC50: > 80 µM (inactive)

## O=C(C[C@@H]1CC[C@H]2[C@@H](COC[C@H](O)CN2Cc2cccc(C(F)(F)F)c2)O1)NCc1ccc(Cl)cc1
[11]
  AC50: 10.9 µM (active)
[12]
  AC50: 4.85 µM (active)

## O=C(Nc1cc(Sc2ccccn2)cc([N+](=O)[O-])c1)c1cccc(F)c1
INS1
  AC50: 5.55 µM (active)
[3]
  IC50: 5.86 µM (not active)

## COc1cc(/C=C2\C(=N)N3N=C(N4CCOCC4)SC3=NC2=O)ccc1OC(=O)c1ccccc1
Genome polyprotein
  IC50: 80.1 µM (active)

## C/C=C(/C)C(=O)OC1Cc2c(ccc3ccc(=O)oc23)OC1(C)C (centres undefined)
[2]
  IC50: > 80 µM (inactive)

## Cc1nc2ccccc2c(=O)n1CC(=O)O
P388/ADR
  GI50: > 100 µM (inactive)
P388
  GI50: > 100 µM (inactive)
SN12K1
  GI50: > 100 µM (inactive)
